Here are results for one molecule from patent US4247702A, “Method of stabilizing 4-methyl-5-(2'chloroethyl)-thiazol” (Pharmaceutical Licences Company Ltd., priority 1978, dated 1981).

A short description of this data set: Chloride analysis of decomposition deposit of Clomethiazol-Base kept 7 days at 70° C. The note with it: deposit after 7 days at 70° C., washed with benzene. The data set is classed as physicochemical. The method, then: Freshly distilled Clomethiazol-Base was kept for 7 days at 70° C., and the precipitated brown deposit (decomposition products) was washed with benzene and analyzed.

For the molecule `Cc1ncsc1CCCl` [CMT-Base, 4-Methyl-5-(2'-Chlorethyl)-thiazol], the “total chloride greater than the sum of free chloride and chloride of occluded CMT-Base and CMT-HCl (chloride surplus)” value came to 17%.
